The record followed here is patent US20030181727A1, “Cyanine dyes” (Kabushiki Kaisha Hayashibara Seibutsu Kagaku Kenky, priority 1999, published 2003).

A short description of data set [1]: Light-resistance test: residual percentage of dye in thin layer on glass after 25 min exposure to 500 W xenon lamp. It counts as physicochemical. The following applies: 7 cm, from transmittance at absorption maximum; for Residual percentage of monomethine cyanine dye, With no light-resistant improver: control thin layer without improver; for Residual percentage of monomethine cyanine dye, With light-resistant improver: thin layer with formazan nickel complex of Chemical Formula 49 (15 mg dye + 2 mg improver in 3 ml TFP). How it is done: Fifteen milligrams of either of the monomethine cyanine dyes in Table 2 was added to three milliliters of TFP, and as a light-resistant improver two milligrams of the formazan nickel complex represented by Chemical Formula 49 disclosed in Japanese Patent Application No. 163,036/99, titled “Formazan metal complexes” applied for by the same applicant as the present invention, and the contents were dissolved in the solvent with a 5-minute ultrasonic energization at ambient temperature. Thereafter, in a usual manner, a prescribed volume of the resulting solution was dropped on either surface of a polished glass substrate, 5 cm×5 cm, while the glass substrate was rotated at a rotation rate of 1,000 rpm for one minute to uniformly coat the solution thereupon, and sequentially blown with hot air and cold air to dry the coated solution. [drawing 10]
The resulting glass substrates coated with the monomethine cyanine dyes were measured for transmittance (T0) at the wavelengths of their absorption maxima, and then fixed to a position 7 cm apart from a 500 W xenon lamp and exposed with the light for 25 min while cold air was blowing to the substrates. Immediately after that, the resulting substrates were remeasured for transmittance (T) at the wavelengths of the absorption maxima of the monomethine cyanine dyes, and the transmittances of T and T0 for each monomethine cyanine dye were substituted for the Equation 1 to calculate the residual percentage (%) of each monomethine cyanine dye. In parallel, control systems with no light-resistant improver for each monomethine cyanine dye were provided and treated similarly as above. [formula]
As shown in the results in Table 2, in the systems with no light-resistant improver, up to 74% of the monomethine cyanine dye had changed with only a 25-min exposure of light to become incapable of exerting its inherent optical properties. However, in the systems with the formazan metal complex represented by Chemical Formula 49, all of the monomethine cyanine dyes still remained intact up to a level of over 93% without changing even after the exposure of light.

Data set [2] in a line: Visible absorption spectra of monomethine cyanine dyes in methanol solution and as thin layer on glass substrates. It counts as physicochemical. Particulars: for Wavelength of absorption maximum, Solution: dissolved in methanol; for Wavelength of absorption maximum, Thin layer: thin layer formed on glass substrate. How it is done:
The monomethine cyanine dyes in Table 1 were measured for their visible absorption spectra when dissolved in methanol and formed on glass substrates, respectively. The results are tabulated in Table 1, and the visible absorption spectrum of the monomethine cyanine dye represented by Chemical Formula 17 when in a liquid form and in a thin-layer form are shown in FIG. 1.
As evident from the results in Table 1 and FIG. 1, the monomethine cyanine dyes tested had absorption maxima in relatively short wavelength visible regions, particularly, at wavelengths of 450 nm or less both in the forms of solution and thin layer. Most of these monomethine cyanine dyes had absorption maxima at wavelengths of 350-400 nm when in solution and thin layer forms, and the ends of their absorption maxima in their longer wavelength regions extended up to about 450 nm when in a thin layer form. The fact evidences that the light absorbents, comprising the monomethine cyanine dyes of the present invention, have sensitivity to a relatively short-wavelength visible light, and most of the light absorbents substantially absorb laser beams with wavelengths of 450 nm or less in their longer wavelength regions with their absorption maxima.

In the case of `CC[n+]1c(C=C2Oc3ccc(-c4ccccc4)cc3N2C)oc2ccccc21.[I-]` [Chemical Formula 6], in data set [1], the “Residual percentage of monomethine cyanine dye, With no light-resistant improver” value turned out to be 98.7% and the “Residual percentage of monomethine cyanine dye, With light-resistant improver” value amounted to 100.0%. In data set [2], the “Wavelength of absorption maximum, Solution” value (“Wavelength … Solution” for short) is listed as 380 nm and the “Wavelength of absorption maximum, Thin layer” value (“Wavelength … Thin layer” below) came to 371 nm.

Take `CC[n+]1c(C)csc1C=C1OC=C(C)N1C.[I-]` [Chemical Formula 17]: in data set [1], the “Residual percentage of monomethine cyanine dye, With no light-resistant improver” value is on record as 80.6% and the “Residual percentage of monomethine cyanine dye, With light-resistant improver” value was determined as 100.0%. In addition, in data set [2], the “Wavelength … Solution” value was 379 nm and the “Wavelength … Thin layer” value is given as 375 nm.

With `CN1C(=CC2=[N+](C)c3ccccc3C2(C)C)Oc2ccccc21.[I-]` [Chemical Formula 36], in data set [1], the “Residual percentage of monomethine cyanine dye, With no light-resistant improver” value was 26.0% and the “Residual percentage of monomethine cyanine dye, With light-resistant improver” value is recorded as 93.2%. Besides, in data set [2], the “Wavelength … Solution” value is recorded as 396 nm and the “Wavelength … Thin layer” value is given as 440 nm.
